The values below are quoted from earlier work in paper PMC9217999 (Targeted Oncology, 2022).

Structures are written as SMILES.

Data set [1] has as its system xenograft models of pediatric solid tumors. As to conditions: ref Roche data on file; cited from earlier work.
In data set [2] the test system is pediatric cancer cell lines. To be noted: ref Roche data on file; cited from earlier work.

`O=C(c1ccc(F)c(F)c1Nc1ccc(I)cc1F)N1CC(O)([C@@H]2CCCCN2)C1` [cobimetinib]: the “Activity in xenograft models” value in data set [1] was “activity observed”. For the same compound, the Cytotoxic effects entry in data set [2] is recorded as “Cytotoxic effects”.
